Peptide text beside a SMILES is read from it. * marks the point of attachment. Cbz = O=C(OCc1ccccc1)*
Key:
zebrafish = experiment: Resistance to thalidomide in brain development (brain thickness to body length); format: in vivo; settings: BRD7-knockdown larvae, 400 μM thalidomide
Procedure: To analyze the functional relationship between thalidomide and BRD7, brain development of BRD7-knockdown zebrafish treated with thalidomide was examined and compared with that of normal zebrafish treated with thalidomide. […] FIGS. 12A and 12B show the normal zebrafish treated with 400 μM thalidomide. FIGS. 12C and 12D show the BRD7-knockdown zebrafish treated with 400 μM thalidomide. FIGS. 12A′ and 12C′ show the brain regions of the normal zebrafish treated with 400 μM thalidomide. FIGS. 12B′ and 12D′ show the brain regions of the BRD7-knockdown zebrafish treated with 400 μM thalidomide. […] The percentages of brain thickness to body length in the normal and the BRD7-knockdown zebrafish, with or without thalidomide treatments were also measured. […] The brain size of the BRD7-knockdown larvae incubated in thalidomide is 98.8% of that of the BRD7-knockdown larvae incubated in the absence of thalidomide.

zebrafish embryos = experiment: Quantitative PCR of gene expression in zebrafish embryos; format: in vivo; settings: 11 hpf
Procedure: BRD7-knockdown zebrafish embryos show similar phenotypes as CRBN-overexpressing zebrafish embryos. For example, expression of HuC in untreated, CRBN-overexpressing, and BRD7-knockdown zebrafish embryos was compared by quantitative PCR. Quantitative PCR was performed as follows: 1.7 μg of random […] and oligo-dT primed cDNA synthesized by ReverTra Ace qPCR RT Kit (TOYOBO, Japan) (as template) were used for reverse transcription by THUNDERBIRD™ SYBR® qPCR Mix (Toyobo, Japan). 0.25 mM of each forward and reverse primers were used in the reaction, wherein the sequence of the forward primer was 5′-[…]-3′ (SEQ ID NO: 9); and the sequence of the reverse primer was 5′-[…]-3′ (SEQ ID NO: 10).
Expression of Pou5f1 (Oct3/4), c-Myc, Sox2, and Nanog in zebrafish embryos was analyzed by quantitative PCR. Quantitative RT (qRT)-PCR was performed as follows: 1.7 μg of random hexamer and oligo-dT primed cDNA synthesized by ReverTra Ace qPCR RT Kit (TOYOBO, Japan) (as template) were used for reverse transcription by THUNDERBIRD™ SYBR® qPCR Mix (Toyobo, Japan). 0.25 mM of each forward and reverse primers was used in the reaction. The sequences of primers for c-Myc are as follows: forward primer is 5′-[…]-3′ (SEQ ID NO: 15), and reverse primer is 5′-GTAAAACGACGGCCAGT-3′ (SEQ ID NO: 16). The sequences of primers for sox2 are as follows: forward primer is 5′-ACCCCGGAGGAAAACCAA-3′ (SEQ ID NO: 17), and reverse primer is 5′-CCCGGCAGGGTGTACTTG-3′ (SEQ ID NO: 18). The sequences of primers for nanog are as follows: forward primer is 5′-TACCCAACACACCAGCTTC-3′ (SEQ ID NO: 19), and reverse primer is 5′-GAAGGGTGTTTTTGGAGGA-3′ (SEQ ID NO: 20).
Expression of a pool of three genes, Ascl1, Brn2 (Pou3f2), and Myt1la, is sufficient to directly reprogram embryonic and postnatal fibroblasts into functional neurons. See, e.g., Vierbuchen and Wernig, Nat Biotechnol. 29:892-907 […]. […] Primer sequences for amplification for Ascl1a are as follows: forward primer is 5′-ACGAGCATGACGCCGTA-3′ (SEQ ID NO: 21), and reverse primer is 5′-[…]-3′ (SEQ ID NO: 22). Primer sequences for amplification for Pou3f2b are as follows: forward primer is 5′-[…]-3′ (SEQ ID NO: 23), and reverse primer is 5′-[…]-3′(SEQ ID NO: 24). Primer sequences for amplification for Myt1la are as follows: forward primer is 5′-[…]-3′ (SEQ ID NO: 25), and reverse primer is 5′-[…]-3′ (SEQ ID NO: 26). FIG. […]
Notch3 and Neuropilin2b (Nrp2b) are required for cell proliferation progression. Notch3 regulates the timing of neural differentiation from undifferentiated or immature cells, and Nrp2b regulates cell proliferation and remodeling in mesenchymal stem cells by cooperating with PDGF (platelet-derived growth factor). Therefore, expression of Notch3 and Neuropilin 2b (Nrp2b) was analyzed in untreated and CRBN-overexpressing zebrafish embryos by quantitative PCR. The primers used for Notch3 are as follows: the sequence for forward primer is 5′-[…]-3′ (SEQ ID NO: 27), and the sequence for reverse primer is 5′-[…]-3′ (SEQ ID NO: 28). The primers used for Nrp2b are as follows: the sequence of forward primer is 5′-[…]-3′ (SEQ ID NO: 29), and the sequence of reverse primer is 5′-[…]-3′ (SEQ ID NO: 30). FIG. 29A is a histogram showing the mRNA level of Notch3 and Nrp2b in untreated, CRBN-overexpressing, and thalidomide-treated zebrafish embryos at 11 hpf by quantitative PCR. As shown, expression of Notch3 in the CRBN-overexpressing embryos increased to 1.8-fold of the level in the untreated embryos at 11 hpf, and expression of Nrp2b in the CRBN-overexpressing embryos increased to 2.7-fold of the level in the untreated embryos at the same stage.
Elval3 (Huc) is a neural progenitor marker. Expression of Elavl3 (Huc) was also analyzed by quantitative PCR and in situ hybridization. […]

CRBN = experiment: Detection of the CRBN ubiquitin ligase activity using live cells; format: cell-based; settings: mammalian cells expressing FLAG-CRBN, immunoblotting
Procedure: This process was carried out basically in accordance with the method of Ohtake et al. See Ohtake et al., Nature, 446:562-566 (2007). MG132, which was a proteasome inhibitor, was applied to mammalian cells expressing CRBN fused with a FLAG epitope tag, and the cells were left still. Subsequently, the cells were disrupted, and from the resulting cell lysate solution, FLAG was purified, and CRBN was extracted. Then immunoblotting was performed under similar, but stricter, conditions to the above, whereby self-ubiquitination was detected and measured.

[1] = fold of level in untreated embryos

O=C1CCC(N2C(=O)c3ccccc3C2=O)C(=O)N1 (stereo not shown) [thalidomide, reference compound]
brain size of BRD7-knockdown larvae incubated in thalidomide relative to absence of thalidomide (zebrafish): 98.8% | expression of Nanog (change) (zebrafish embryos; FIG. 13): decreased | expression of Pou5f1 (change) (zebrafish embryos; FIG. 13): decreased | expression of Zic3 (change) (zebrafish embryos; FIG. 13): decreased | Notch3 mRNA expression (zebrafish embryos; [1]): 0.3 fold | Nrp2b mRNA expression (zebrafish embryos; [1]): 0.4 fold

CC(C)C[C@@H](C=O)NC(=O)[C@H](CC(C)C)NC(=O)[C@H](CC(C)C)NC(=O)OCc1ccccc1 [MG132] (Cbz-Leu-Leu-Leu-aldehyde)
bands representing CRBN-containing (self-ubiquitinated) proteins (CRBN): a number of bands representing CRBN-containing proteins were detected

From patent US10272117B2, “Methods of using an activator of cereblon for neural cell expansion and the treatment of central nervous system disorders” (Celgene Corporation, priority 2014, dated 2019)
